Measurements as given in patent publication EP0545103A1, “Insecticidal, acaricidal and molluscicidal 1-(substituted) thioalkylpyrroles” (priority 1991, dated 1993).

Each compound was assayed on Spodoptera eridania, 3rd instar larvae, southern armyworm (assay: Southern armyworm 7-day residual test). Conditions: R designates Residual: 7-day residual foliage; rating at 3 days; concentration not given.
Type: in vivo
Method: (§1) Test solutions are prepared by dissolving the test compound in a 35% acetone in water mixture to give a concentration of 10,000 ppm. Subsequent dilutions are made with water as needed.
Spodoptera eridania, 3rd instar larvae, southern armyworm, 7-day residual
The limabean leaves treated in the above test are maintained under high intensity lamps in the greenhouse for 7 days. These lamps duplicate the effects of a bright sunny day in June in New Jersey and are kept on for 14 hour day length. After 7 days, the foliage is sampled and assayed as in the above-said test.
(§2) All of the above tests are rated according to the rating scale shown below.

Compound	ARMYWORM Day 3 R
N#Cc1c(Br)c(C(F)(F)F)n(CS(=O)(=O)c2ccccc2)c1-c1ccc(Cl)cc1 [Example 46]	4 (46-55% kill)
N#Cc1c(Br)c(C(F)(F)F)n(CSc2nc3ccccc3[nH]2)c1-c1ccc(Cl)cc1 [Example 9]	9 (100% kill)

Same assay, conditions: R designates Residual: 7-day residual foliage; rating at 5 days; concentration not given

Compound	ARMYWORM Day 5 R
N#Cc1c(Br)c(C(F)(F)F)n(CS(=O)(=O)c2ccccc2)c1-c1ccc(Cl)cc1 [Example 46]	9 (100% kill)
N#Cc1c(Br)c(C(F)(F)F)n(CSc2nc3ccccc3[nH]2)c1-c1ccc(Cl)cc1 [Example 9]	9 (100% kill)

The compounds below were run on Heliothis virescens, egg, tobacco budworm (assay: Tobacco budworm egg test, dipped cotton leaf and eggs). Conditions: 1000 ppm; mortality rating after 3 days.
Type: in vivo
Design: key: 0: no effect; 10-25% kill; 26-35% kill; 36-45% kill; 46-55% kill; 56-65% kill; 66-75% kill; 76-85% kill; 86-99% kill; 9: 100% kill
Method: as §1
Heliothis virescens, egg, tobacco budworm
A young cotton leaf about 6-7cm in length is dipped in an agitated test suspension for about 3 seconds. Eggs are collected on a cheesecloth and the cloth is cut into 10-20mm squares, each containing approximately 50-100 eggs which are 6-30 hours old. The egg-containing cheesecloth square is similarly dipped in a test suspension and placed on a treated cotton leaf. The combination is dried in a hood and then placed in an 8 ounce Dixie® cup #2168-ST (240ml volume, 6cm tall, 9.5cm top diameter, 8.0cm bottom diameter) into which a 5cm length of damp dental wick has been placed. The cup is covered with a clear plastic lid and held for 3 days, after which mortality counts are made.
as §2

Compound	TOBACCO BUDWORM Egg
N#Cc1c(Br)c(C(F)(F)F)n(CS(=O)(=O)c2ccccc2)c1-c1ccc(Cl)cc1 [Example 46]	0
N#Cc1c(Br)c(C(F)(F)F)n(CSc2nc3ccccc3[nH]2)c1-c1ccc(Cl)cc1 [Example 9]	0

Each compound was assayed on Diabrotic undecimpunctata howardi, 3rd instar southern corn rootworm (assay: Southern corn rootworm soil test). Conditions: 1 (ppm as headed), mortality rating after 6 days.
Type: in vivo
Design: key: 0: no effect; 10-25% kill; 26-35% kill; 36-45% kill; 46-55% kill; 56-65% kill; 66-75% kill; 76-85% kill; 86-99% kill; 9: 100% kill
Method: Diabrotic undecimpunctata howardi, 3rd instar southern corn rootworm
One cc of fine talc is placed in a 30 mL wide-mouth screw-top glass jar. One mL of the appropriate acetone test solution is pipetted onto the talc so as to provide 1.25 and 0.25 mg of active ingredient per jar. The jars are set under a gentle air flow until the acetone is evaporated. The dried talc is loosened, 1 cc of millet seed is added to serve as food for the insects and 25 mL of moist soil is added to each jar. The jar is capped and the contents thoroughly mixed on a Vortex Mixer. Following this, ten 3rd instar rootworms are added to each jar and the jars are loosely capped to allow air exchange for the larvae. The treatments are held for 6 days when mortality counts are made. Missing larvae are presumed dead, since they decompose rapidly and can not be found. The concentrations used in this test correspond approximately to 50 and 10 kg/ha, respectively.
as §2

Compound	SOUTHERN CORN ROOTWORM
N#Cc1c(Br)c(C(F)(F)F)n(CS(=O)(=O)c2ccccc2)c1-c1ccc(Cl)cc1 [Example 46]	0

Same assay, conditions: 10 (ppm as headed), mortality rating after 6 days

Compound	SOUTHERN CORN ROOTWORM
N#Cc1c(Br)c(C(F)(F)F)n(CS(=O)(=O)c2ccccc2)c1-c1ccc(Cl)cc1 [Example 46]	0

Same assay, conditions: 50 (ppm as headed), mortality rating after 6 days

Compound	SOUTHERN CORN ROOTWORM
N#Cc1c(Br)c(C(F)(F)F)n(CS(=O)(=O)c2ccccc2)c1-c1ccc(Cl)cc1 [Example 46]	8 (86-99% kill)
N#Cc1c(Br)c(C(F)(F)F)n(CSc2nc3ccccc3[nH]2)c1-c1ccc(Cl)cc1 [Example 9]	0

The compounds below were run on Spodoptera eridania, 3rd instar larvae, southern armyworm (assay: Southern armyworm systemic uptake (stem systemic) test). Conditions: cut stem in emulsion 3 days.
Type: in vivo
Design: key: 0: no effect; 10-25% kill; 26-35% kill; 36-45% kill; 46-55% kill; 56-65% kill; 66-75% kill; 76-85% kill; 86-99% kill; 9: 100% kill
Source text: Spodoptera eridania, systemic uptake, 3rd instar larvae, southern armyworm
Subsequent 10-fold dilutions are made with water as needed. Sieva limabean plants, with the primary leaves expanded to a length of 7-8 cm, are cut off at least 3 cm above the soil level to avoid contamination with soil bacteria which will cause decay of the stem during the test. The cut stem is placed in the test emulsion and wrapped with a bit of cotton to hold the stem off the bottom of the bottle and to limit evaporation. The treated stem is thus maintained for 3 days at 27° C to allow the test compound to be taken up into the plant. Following this, one leaf is removed from the plant and placed in a 100 x 10 mm petri dish with 10 southern armyworms as described above. Mortality counts and observations of feeding damage are made 3 and 5 days later.
as §2

Compound	ARMYWORM Stem Sys
N#Cc1c(Br)c(C(F)(F)F)n(CS(=O)(=O)c2ccccc2)c1-c1ccc(Cl)cc1 [Example 46]	0
N#Cc1c(Br)c(C(F)(F)F)n(CSc2nc3ccccc3[nH]2)c1-c1ccc(Cl)cc1 [Example 9]	0

What follows are compounds tested on Spodoptera eridania, 3rd instar larvae, southern armyworm (assay: Southern armyworm 3rd instar test, dipped limabean leaf). Conditions: 10 ppm; rating at 3 days.
Type: in vivo
Design: key: 0: no effect; 10-25% kill; 26-35% kill; 36-45% kill; 46-55% kill; 56-65% kill; 66-75% kill; 76-85% kill; 86-99% kill; 9: 100% kill
Method: as §1
Spodoptera eridania, 3rd instar larvae, southern armyworm
A Sieva limabean leaf expanded to 7-8 cm in length is dipped in the test solution with agitation for 3 seconds and allowed to dry in a hood. The leaf is then placed in a 100 x 10 mm petri dish containing a damp filterpaper on the bottom and ten 3rd instar caterpillars. At 3 and 5 days, observations are made of mortality, reduced feeding, or any interference with normal molting.
as §2

Compound	ARMYWORM Day 3
N#Cc1c(Br)c(C(F)(F)F)n(CS(=O)(=O)c2ccccc2)c1-c1ccc(Cl)cc1 [Example 46]	0

Same assay, conditions: 10 ppm; rating at 5 days

Compound	ARMYWORM Day 5
N#Cc1c(Br)c(C(F)(F)F)n(CS(=O)(=O)c2ccccc2)c1-c1ccc(Cl)cc1 [Example 46]	0

Same assay, conditions: 100 ppm; rating at 3 days

Compound	ARMYWORM Day 3
N#Cc1c(Br)c(C(F)(F)F)n(CS(=O)(=O)c2ccccc2)c1-c1ccc(Cl)cc1 [Example 46]	0
N#Cc1c(Br)c(C(F)(F)F)n(CSc2nc3ccccc3[nH]2)c1-c1ccc(Cl)cc1 [Example 9]	0

Same assay, conditions: 100 ppm; rating at 5 days

Compound	ARMYWORM Day 5
N#Cc1c(Br)c(C(F)(F)F)n(CS(=O)(=O)c2ccccc2)c1-c1ccc(Cl)cc1 [Example 46]	0
N#Cc1c(Br)c(C(F)(F)F)n(CSc2nc3ccccc3[nH]2)c1-c1ccc(Cl)cc1 [Example 9]	0

Same assay, conditions: 1000 ppm; rating at 3 days

Compound	ARMYWORM Day 3
N#Cc1c(Br)c(C(F)(F)F)n(CS(=O)(=O)c2ccccc2)c1-c1ccc(Cl)cc1 [Example 46]	9 (100% kill)
N#Cc1c(Br)c(C(F)(F)F)n(CSc2nc3ccccc3[nH]2)c1-c1ccc(Cl)cc1 [Example 9]	6 (66-75% kill)

Same assay, conditions: 1000 ppm; rating at 5 days

Compound	ARMYWORM Day 5
N#Cc1c(Br)c(C(F)(F)F)n(CS(=O)(=O)c2ccccc2)c1-c1ccc(Cl)cc1 [Example 46]	9 (100% kill)
N#Cc1c(Br)c(C(F)(F)F)n(CSc2nc3ccccc3[nH]2)c1-c1ccc(Cl)cc1 [Example 9]	7 (76-85% kill)

What follows are compounds tested on Heliothis virescens, 3rd instar tobacco budworm (assay: Tobacco budworm 3rd instar test, dipped cotton cotyledons). Conditions: 100 ppm; mortality rating after 3 days.
Type: in vivo
Design: key: 0: no effect; 10-25% kill; 26-35% kill; 36-45% kill; 46-55% kill; 56-65% kill; 66-75% kill; 76-85% kill; 86-99% kill; 9: 100% kill
Method: as §1
Heliothis virescens, 3rd instar tobacco budworm
Cotton cotyledons are dipped in the test solution and allowed to dry in a hood. When dry, each is cut into quarters and ten sections are placed individually in 30 mL plastic medicine cups containing a 5-7mm long piece of damp dental wick. One 3rd instar caterpillar is added to each cup and the cup is sealed with MYLAR® film. Treatments are maintained for 3 days before a mortality count and observation of reduction in feeding damage are made.
as §2

Compound	TOBACCO BUDWORM 3rd Instar
N#Cc1c(Br)c(C(F)(F)F)n(CSc2nc3ccccc3[nH]2)c1-c1ccc(Cl)cc1 [Example 9]	0

Same assay, conditions: 1000 ppm; mortality rating after 3 days

Compound	TOBACCO BUDWORM 3rd Instar
N#Cc1c(Br)c(C(F)(F)F)n(CSc2nc3ccccc3[nH]2)c1-c1ccc(Cl)cc1 [Example 9]	0
